The record followed here is patent publication US4271155A, “Water soluble hydrazones of 3-formylrifamycin SV, antibacterial compositions thereof and method of use thereof” (Gruppo Lepetit S.p.A., priority 1979, dated 1981).

Molecules are shown by their SMILES. Read-outs that look alike come from different tables or passages of the source.

Series [1] in a line: solubility in water / aqueous vehicles. It is filed as physicochemical. The source says:
The new rifamycins of formula I are in fact completely soluble in water or in mixture of water with other pharmaceutically acceptable solvents mixable with water. Useful solvents which can be admixed with water are for instance the polyhydric aliphatic alcohols such as ethylene glycol, propylene glycol, glycerine and mixtures thereof. These solutions can be added with buffers to maintain the pH range at a physiological value. For instance, ten grams of the compound of formula I wherein R is methyl, X is [drawing 3] are completely soluble in 100 ml of water buffered at pH 7.38 (phosphate buffer). The corresponding compound wherein A and B are both the sodium cation is even more soluble; in fact 100 ml of water can dissolve about fifty grams of said compound.

Series [2] has as its system Staphylococcus aureus Tour. Description: ED50 in mice infected with Staphylococcus aureus Tour. It is filed as in vivo. The note with it: sc. The source says: (§1) The values of the ED50 of the compounds of examples 2, 3 and 4 against the two microbial strains and the toxicity (LD50) of the compounds are reported in the following Table
Series [3] in a line: toxicity (LD50) in mice. The note with it: mouse, in vivo.
Source text: as §1

In series [4] the test system is Escherichia coli. Nature of the series: ED50 in mice infected with Escherichia coli. It is filed as in vivo. To be noted: sc, read-out: ED50, E. coli.
Source text: as §1

The mark [5] stands for this setting: ip, read-out: LD50 in mice, i.p.
[6] abbreviates: iv, read-out: LD50 in mice, i.v.

With `COC1C=COC2(C)Oc3c(C)c(O)c4c(O)c(c(C=NN(C)CC(C)OP(=O)(O)O)c(O)c4c3C2=O)NC(=O)C(C)=CC=CC(C)C(O)C(C)C(O)C(C)C(OC(C)=O)C1C` (centres unmarked) [listing 1 of 2 here], in series [1] (per 100 ml of water buffered at pH 7.38 (phosphate buffer)), the “completely soluble in 100 ml of water” value is “ten”.

As for `COC1C=COC2(C)Oc3c(C)c(O)c4c(O)c(c(C=NN(C)CC(C)OP(=O)(O)O)c(O)c4c3C2=O)NC(=O)C(C)=CC=CC(C)C(O)C(C)C(O)C(C)C(OC(C)=O)C1C` (centres unmarked) [listing 2 of 2 here], the “amount that 100 ml of water can dissolve” value in series [1] (per 100 ml of water, A and B both sodium cation) is reported as “about fifty”.

Turning to `COC1C=COC2(C)Oc3c(C)c(O)c4c(O)c(c(C=NN(C)CC(C)OP(=O)(O)O)c(O)c4c3C2=O)NC(=O)C(C)=CC=CC(C)C(O)C(C)C(O)C(C)C(OC(C)=O)C1C` (centres unmarked) [Example 2, 3-[[[2-(Phosphonoxy)propyl]methylhydrazino]methyl]rifamycin SV], the median effective dose (ED50) – broadly, the midpoint of the dose-response relation – came to 0.812 mg/kg in series [2] and 98.5 mg/kg in series [4]. Besides, the results for the LD50 in series [3] (setting [5]) and in series [3] (setting [6]) were 770 mg/kg and 665 mg/kg, respectively.

Regarding `CCC(CN(C)N=Cc1c2c(O)c3c(O)c(C)c4c(c3c1O)C(=O)C(C)(OC=CC(OC)C(C)C(OC(C)=O)C(C)C(O)C(C)C(O)C(C)C=CC=C(C)C(=O)N2)O4)OP(=O)(O)O` (centres unmarked) [Example 3, 3-[[[2-(Phosphonoxy)butyl]methylhydrazono]methyl]rifamycin SV], the results for the median effective dose (ED50) in series [2] and in series [4] were 0.812 mg/kg and 130 mg/kg, respectively. Besides, the figures for the median lethal dose (LD50) in series [3] (setting [5]) and in series [3] (setting [6]) were greater than 500 mg/kg and 525 mg/kg, respectively.

For `COC1C=COC2(C)Oc3c(C)c(O)c4c(O)c(c(C=NN(C)CCOP(=O)(O)O)c(O)c4c3C2=O)NC(=O)C(C)=CC=CC(C)C(O)C(C)C(O)C(C)C(OC(C)=O)C1C` (centres unmarked) [Example 4, 3-[[[2-(Phosphonoxy)ethyl]methylhydrazono]methyl]rifamycin SV], the median effective dose (ED50) in series [2] was determined as 1.51 mg/kg; in series [4] it was 106 mg/kg. In addition, the LD50 – broadly, the dose at which mortality reaches 50% – in series [3] (setting [5]) stood at 592 mg/kg; in series [3] (setting [6]), 507 mg/kg.
